pIC50: −log10 of the molar value. Converted amounts (≈) assume the structure as drawn. “And” between values parts separate entries of the source, which are not always exact repeats. Equal entries are not always repeated.
Key:
Type in all cases: cell-based, Acinetobacter baumannii
A. baumannii ATCC 17978 = assay: IC50 dose response, inhibition of bacterial growth (BacTiter-Glo viability); conditions: Acinetobacter baumannii, 11-point dose response
A. baumannii HUMC1 = assay: MIC, broth microdilution in MHII, RPMI or modified media; conditions: for Rifabutin MIC: clinical isolate HUMC1
A. baumannii = assay: MIC, broth microdilution, A. baumannii clinical isolates / strain panel

CO[C@H]1/C=C/O[C@@]2(C)Oc3c(C)c(O)c4c(c3C2=O)C2=NC3(CCN(CC(C)C)CC3)NC2=C(NC(=O)/C(C)=C\C=C\[C@H](C)[C@H](O)[C@@H](C)[C@@H](O)[C@@H](C)[C@H](OC(C)=O)[C@@H]1C)C4=O [rifabutin]
pIC50 (A. baumannii ATCC 17978; ATCC17978, 24 h, ATCC 17978, RPMI + 50% Serum): > 9.07 | pIC50 (A. baumannii ATCC 17978; ATCC17978, ATCC 17978, RPMI + 50% Serum): > 9.07 | pIC50 (A. baumannii ATCC 17978; ATCC17978, ATCC 17978, RPMI): 7.62 | MIC (A. baumannii HUMC1; Acinetobacter baumannii, HUMC1, HUMC1, 5 × RPMI): < 0.0625 µg/mL | MIC (A. baumannii HUMC1; Acinetobacter baumannii, HUMC1, HUMC1, 10-30 kDa MHII Fraction spiked into RPMI): 8 µg/mL (≈ 9.44 µM) | MIC (A. baumannii HUMC1; Acinetobacter baumannii, HUMC1, HUMC1, 25° C., MHII): 4 µg/mL (≈ 4.72 µM) | MIC (A. baumannii HUMC1; Acinetobacter baumannii, HUMC1, HUMC1, 25° C., RPMI): < 0.06 µg/mL | MIC (A. baumannii HUMC1; Acinetobacter baumannii, HUMC1, HUMC1, <10 kDa MHII Fraction spiked into RPMI): 8 µg/mL (≈ 9.44 µM) | MIC (A. baumannii HUMC1; Acinetobacter baumannii, HUMC1, HUMC1, Low Salt Luria Broth): 2 µg/mL | MIC (A. baumannii HUMC1; Acinetobacter baumannii, HUMC1, HUMC1, Luria Broth): 1 µg/mL (≈ 1.18 µM) | MIC (A. baumannii HUMC1; Acinetobacter baumannii, HUMC1, HUMC1, M9): < 0.05 µg/mL | MIC (A. baumannii HUMC1; Acinetobacter baumannii, HUMC1, HUMC1, MHII (CAMHB)): 4 µg/mL (≈ 4.72 µM) | MIC (A. baumannii HUMC1; Acinetobacter baumannii, HUMC1, HUMC1, MHII + 200 mg/L glucose): 2 µg/mL | MIC (A. baumannii HUMC1; Acinetobacter baumannii, HUMC1, HUMC1, MHII + 2,000 mg/L glucose): 2 µg/mL | MIC (A. baumannii HUMC1; Acinetobacter baumannii, HUMC1, HUMC1, MHII + Non-Essential Amino Acid Solution (100×)): 3.12 µg/mL | MIC (A. baumannii HUMC1; Acinetobacter baumannii, HUMC1, HUMC1, No Salt Luria Broth): 1 µg/mL | MIC (A. baumannii HUMC1; Acinetobacter baumannii, HUMC1, HUMC1, Non tissue culture treated 96-well plates): 1.56 µg/mL (≈ 1.84 µM) | MIC (A. baumannii HUMC1; Acinetobacter baumannii, HUMC1, HUMC1, RPMI + CCCP (2 μg/mL) + Essential Amino Acids): 1.56 µg/mL | MIC (A. baumannii HUMC1; Acinetobacter baumannii, HUMC1, HUMC1, RPMI + Essential Amino Acid Solution (50×)): 1.56 µg/mL | MIC (A. baumannii HUMC1; Acinetobacter baumannii, HUMC1, HUMC1, RPMI + Glutamic Acid 0.5 mM): < 0.048 µg/mL | MIC (A. baumannii HUMC1; Acinetobacter baumannii, HUMC1, HUMC1, RPMI + Glycine 0.5 mM): < 0.048 µg/mL | MIC (A. baumannii HUMC1; Acinetobacter baumannii, HUMC1, HUMC1, RPMI + L-Arginine 0.5 mM): < 0.048 µg/mL | MIC (A. baumannii HUMC1; Acinetobacter baumannii, HUMC1, HUMC1, RPMI + L-Histidine 0.5 mM): 1.56 µg/mL | MIC (A. baumannii HUMC1; Acinetobacter baumannii, HUMC1, HUMC1, RPMI + L-Tryptophan 0.125 mM): 1.56 µg/mL | MIC (A. baumannii HUMC1; Acinetobacter baumannii, HUMC1, HUMC1, RPMI + Leucine 1 mM): < 0.048 µg/mL | MIC (A. baumannii HUMC1; Acinetobacter baumannii, HUMC1, HUMC1, RPMI + Non-Essential Amino Acid Solution (100×)): 0.781 µg/mL | MIC (A. baumannii HUMC1; Acinetobacter baumannii, HUMC1, HUMC1, RPMI + Organic Layer, Proteinase K Digested): 4 µg/mL | MIC (A. baumannii HUMC1; Acinetobacter baumannii, HUMC1, HUMC1, RPMI + Organic layer, Sodium Periodate Treated): 4 µg/mL | MIC (A. baumannii HUMC1; Acinetobacter baumannii, HUMC1, HUMC1, RPMI + acetonitrile treated <10 kDa MHII fraction, Aqueous Layer): < 0.0312 µg/mL | MIC (A. baumannii HUMC1; Acinetobacter baumannii, HUMC1, HUMC1, RPMI + acetonitrile treated <10 kDa MHII fraction, Organic Layer): 4 µg/mL | MIC (A. baumannii HUMC1; Acinetobacter baumannii, HUMC1, HUMC1, RPMI + efflux pump inhibitor CCCP (2 μg/mL)): < 0.05 µg/mL | MIC (A. baumannii HUMC1; Acinetobacter baumannii, HUMC1, HUMC1, RPMI + efflux pump inhibitor thioridazine (16 μg/mL)): 12.5 µg/mL | MIC (A. baumannii HUMC1; Acinetobacter baumannii, HUMC1, HUMC1, RPMI Supplemented with MHII (hybrid media, equal parts)): 8 µg/mL (≈ 9.44 µM) | MIC (A. baumannii HUMC1; Acinetobacter baumannii, HUMC1, HUMC1, Tissue culture treated 96-well plates): 1.56 µg/mL (≈ 1.84 µM) | MIC (A. baumannii HUMC1; HUMC1, 5 × RPMI, listed as RBT): 0.06 µg/mL (≈ 0.0708 µM) | MIC (A. baumannii HUMC1; HUMC1, 10-30 kDa MHII Fraction spiked into RPMI, listed as RBT): 8.00 µg/mL (≈ 9.44 µM) | difference in MICs at lower temperature (A. baumannii HUMC1; HUMC1, 25° C. or 30° C. compared to 37° C., MHII or RPMI): did not observe any difference | MIC (A. baumannii HUMC1; HUMC1, 25° C., MHII, listed as RBT): 4.00 µg/mL (≈ 4.72 µM) | MIC (A. baumannii HUMC1; HUMC1, 25° C., RPMI, listed as RBT): 0.05 µg/mL (≈ 0.059 µM) | MIC (A. baumannii HUMC1; HUMC1, <10 kDa MHII Fraction spiked into RPMI, listed as RBT): 8 µg/mL and 8.00 µg/mL | effect of added iron on MIC (A. baumannii HUMC1; HUMC1, FeCl3 spiked into RPMI at 0.01, 0.10, and 0.30 μg/mL): did not have any effect | MIC (A. baumannii HUMC1; HUMC1, MHII (CAMHB in b45)): 3.125 µg/mL (≈ 3.69 µM) | MIC (A. baumannii HUMC1; HUMC1, MHII (CAMHB in b45), listed as Rifabutin): 3.125 µg/mL and 6.25 µg/mL | MIC (A. baumannii HUMC1; HUMC1, MHII (CAMHB), listed as RBT): 4.00 µg/mL and 6.25 µg/mL | MIC (A. baumannii HUMC1; HUMC1, RPMI): 0.0156 µg/mL (≈ 0.0184 µM) | MIC (A. baumannii HUMC1; HUMC1, RPMI + Glutamic Acid 0.5 mM, listed as RBT): 0.05 µg/mL | MIC (A. baumannii HUMC1; HUMC1, RPMI + Glycine 0.5 mM, listed as RBT): 0.05 µg/mL | MIC (A. baumannii HUMC1; HUMC1, RPMI + L-Arginine 0.5 mM, listed as RBT): 0.05 µg/mL | MIC (A. baumannii HUMC1; HUMC1, RPMI + Leucine 1 mM, listed as RBT): 0.05 µg/mL | MIC (A. baumannii HUMC1; HUMC1, RPMI + Non-Essential Amino Acid Solution (100×), listed as RBT): 0.78 µg/mL | MIC (A. baumannii HUMC1; HUMC1, RPMI + Organic Layer, Proteinase K Digested, listed as RBT): 4.00 µg/mL | MIC (A. baumannii HUMC1; HUMC1, RPMI + Organic layer, Sodium Periodate Treated, listed as RBT): 4.00 µg/mL | MIC (A. baumannii HUMC1; HUMC1, RPMI + acetonitrile treated <10 kDa MHII fraction, Aqueous Layer, listed as RBT): 0.03 µg/mL | MIC (A. baumannii HUMC1; HUMC1, RPMI + acetonitrile treated <10 kDa MHII fraction, Organic Layer, listed as RBT): 4.00 µg/mL | MIC (A. baumannii HUMC1; HUMC1, RPMI + efflux pump inhibitor CCCP (2 μg/mL), listed as RBT): 0.05 µg/mL | MIC (A. baumannii HUMC1; HUMC1, RPMI Supplemented with MHII (hybrid media, equal parts)): 8 µg/mL (≈ 9.44 µM) | MIC (A. baumannii HUMC1; HUMC1, RPMI Supplemented with MHII (hybrid media, equal parts), listed as RBT): 8.00 µg/mL (≈ 9.44 µM) | fold lower MIC of RBT as compared to RIF (A. baumannii HUMC1; HUMC1, RPMI, listed as RBT): 133 fold and 200 fold | Rifabutin MIC (A. baumannii HUMC1; MHII): 3.12 µg/mL | Rifabutin MIC (A. baumannii HUMC1; RPMI): 0.0156 µg/mL | fold more potent than rifampin (RIF) (A. baumannii; A. baumannii, RPMI with serum): 133 fold | Rifabutin MIC (A. baumannii; AB044, MHII): 3.12 µg/mL | Rifabutin MIC (A. baumannii; AB044, RPMI): 0.78 µg/mL | Rifabutin MIC (A. baumannii; AB046, MHII): 0.19 µg/mL | Rifabutin MIC (A. baumannii; AB046, MHII (first line)): 6.25 µg/mL | Rifabutin MIC (A. baumannii; AB307-0294, MHII): 6.25 µg/mL | Rifabutin MIC (A. baumannii; AB307-0294, RPMI): < 0.05 µg/mL | Rifabutin MIC (A. baumannii; AB15827, MHII): 3.13 µg/mL

— US20230381157A1, “RIFABUTIN FOR THE TREATMENT OF ACINETOBACTER BAUMANNII” (University of Southern California, priority 2018, published 2023)
